In brackets after ≈: the same amount, converted by molar mass.

This experiment deals with KB. In words: Cytotoxicity against human KB cells after 72 hrs by neutral red staining. Type of experiment: functional, cell-based.

Turning to `COC1=C[C@]23CCC[N@@+]2([O-])CCc2cc4c(cc2[C@@H]3[C@@H]1O)OCO4`, it took 14 µg/mL (≈ 42.2 µM) to reach half-maximal inhibition (IC50).

For `COC1=C[C@]23CCC[N@@+]2([O-])C[C@H](O)c2cc4c(cc2[C@@H]3[C@@H]1O)OCO4`, the IC50 turned out to be 31 µg/mL (≈ 89.2 µM).

For the compound `COC1=C[C@]23CCC[N@+]2([O-])CCc2cc4c(cc2[C@@H]3[C@@H]1O)OCO4`, half-maximal inhibition (IC50) was put at 30 µg/mL (≈ 90.5 µM).

In turn, `COC1=C2c3cc4c(cc3CCN3CCC[C@]23CC1O)OCO4` (some centres undefined) [ISOCEPHALOTAXINE] registered an IC50 of 15 µg/mL (≈ 47.6 µM).

(Values after ChEMBL document CHEMBL1158897, “New alkaloids from Cephalotaxus fortunei” (J Nat Prod, 2003).)
